US10626421B2, “Use of uric acid for culturing bacteria sensitive to oxygen tension” (FONDATION MEDITERRANEE INFECTION, priority 2014, dated 2020)
Where “and” joins values, the source holds several entries; their conditions need not be identical. Equal values may be shown once. Entries after “also recorded” stand apart in the source; their conditions may differ. Read-outs that look alike come from different tables or passages of the source.

Key:
anaerobic bacteria = assay: Culture on Columbia medium with 5% sheep blood in ambient air; format: cell-based; conditions: 1 mg/ml; ambient air or ambient air enriched with 5% of CO2
Method: These geloses inoculated with anaerobic bacteria were incubated either in ambient air or in ambient air enriched with 5% of CO2. […] These tests were conducted with a Columbia medium with 5% sheep blood having the following composition for 1 liter: […]

[1] = test system: Bacteroides thetaiotaomicron; format: cell-based
[2] = test system: Bacteroides thetaiotaomicron; assay: Culture in Schaedler 0.2% agar tubes, height of growth; format: cell-based
Clostridium tertium = assay: Liquid hemoculture BD BACTEC Plus Aerobic/F, growth detection by CO2; format: cell-based; conditions: Aerobic with UA 400 mg/L
Clostridium perfringens = format: cell-based; conditions: Aerobic with UA 400 mg/L
Clostridium butirycum = assay: Liquid hemoculture BD BACTEC Plus Aerobic/F, growth detection by CO2; format: cell-based; conditions: Aerobic with UA 400 mg/L
Method: Hemocultures of strict anaerobic bacteria were made, inoculated to 10^5 cfu/mL on a culture medium: BD BACTEC™ Plus Aerobic/F. comprising 25 ml of enriched Trypticase soya broth, with resines (Reference: 442192) at 37° C. in an aerobic atmosphere with uric acid a 400 mg/L and without uric acid and in an anaerobic atmosphere without uric acid. The detection of the growth was ensured by detection of the production of CO2 with the BD BACTEC™ 9000 Series Instrumented Blood Culture Systems device.

[3] = test system: Helicobacter cinaedi strain DSMZ 5359; assay: Aerobic culture in Schaedler medium with uric acid; conditions: without starch and glucose
[4] = single replicates, listed as UA

| SMILES | growth on Columbia medium with 5% sheep blood (anaerobic bacteria) | growth with uric acid alone compared with mixture of uric acid, ascorbic acid and glutathion ([1]; 0.3 g/L of uric acid alone) | culture result with production of hydrogen ([1]; aerobic conditions, 24 hour incubation, 37° C., uric acid alone 0.1, 0.2 or 0.3 g/L, or 0.1 g/L each of ascorbic acid, uric acid, glutathion) | growth with uric acid alone compared with mixture of uric acid, ascorbic acid and glutathion ([1]; uric acid alone at least 0.2 g/L) | extent of culture in deoxygenated tube ([2]; 200 μg/ml) | extent of culture in deoxygenated tube ([2]; 500 μg/ml) | growth compared with ascorbic acid ([2]; 500 μg/ml, Schaedler 0.2% agar tubes) | Averages (growth time) (Clostridium tertium) | Growth time (Clostridium tertium; [4]) | Averages (growth time) (Clostridium perfringens) | Growth time (Clostridium perfringens; [4]) | Averages (growth time) (Clostridium butirycum) | Growth time (Clostridium butirycum; [4]) | time until bacterium established in culture [3] [h] |
| --- | --- | --- | --- | --- | --- | --- | --- | --- | --- | --- | --- | --- | --- | --- |
| O=C1O[C@H]([C@@H](O)CO)C(O)=C1O [ascorbic acid, reference compound] | Best growth | – | – | – | – | – | – | – | – | – | – | – | – | – |
| O=c1[nH]c(=O)c2[nH]c(=O)[nH]c2[nH]1 [uric acid, 7,9-dihydro-1H-purine-2,6,8(3H)-trione] | Best growth | greater | positive culture | equivalent | practically occurs up to the surface | completely up to the surface; also recorded: growth up to the surface | identical | 4.333 | 4 h (2×) and 5 h | 6 | 7 h and 5 h and 6 h | 6.667 | 8 h and 6 h (2×) | ≤ 24 |
